For eleven compounds, Papp and microsomal CLint results are on record in US9409952B2, “Peptide-compound cyclization method” (Chugai Seiyaku Kabushiki Kaisha, priority 2011, dated 2016).

Data set [1] in a line: PAMPA (parallel artificial membrane permeability assay). Format: in vitro ADME. Particulars: PAMPA; membrane permeation rate (Pe); 50 mM MOPSO buffer pH 6.5 with 5.0% glycocholic acid, 37° C., 18 hours; read-out: iPAMPA Pe. The method in brief:
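Artificial membrane was 10% (w/v) egg lecithin plus 0.5% (w/v) cholesterol in dodecane on a PVDF filter. A 10 mM DMSO stock was added at 0.5% (v/v) to donor buffer (50 mM MOPSO, pH 6.5, 5.0% glycocholic acid). After 18 h at 37 °C, LC/MS or LC/UV gave donor and acceptor levels for Pe.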
(In PAMPA a lipid-coated filter parts donor from acceptor wells.)

Data set [2] is described as follows: Metabolic stability in human hepatic microsome. Format: in vitro ADME. Particulars: microsomes, pH 7.4; human hepatic microsome, NADPH(+); read-out: CL NADPH(+).

Starred links: 1 amine or outer side, 2 acyl side, 3 side chain; linkers in the order of their positions; H or OH if unused. Positions of bridges follow the written chain, without caps; N, C: chain ends. Non-standard residues stand in square brackets, D forms with d. Residues, ends and D or L forms follow the SMILES beside them. *: point of attachment. NMePhe(3-Cl) = CN[C@@H](Cc1cccc(Cl)c1)C(=O)O; NMeF = CN[C@@H](Cc1ccccc1)C(=O)O; NMeβAla = CN(CCC(=O)[*:2])[*:1]; NMeL = CN[C@@H](CC(C)C)C(=O)O; NMeA = CN[C@@H](C)C(=O)O; Piperidide = C1CCN(*)CC1; dNMeA = CN[C@H](C)C(=O)O; Sar = CNCC(=O)O

As to `CC[C@H](C)[C@H](NC(=O)[C@H](CC(C)C)N(C)C(=O)[C@@H]1CCCN1C(=O)[C@H](Cc1ccccc1)N(C)C(=O)[C@@H]1CC(=O)N[C@H](C(C)C)C(=O)N[C@@H](C)C(=O)N(C)[C@@H](Cc2ccccc2)C(=O)N(C)[C@@H](C)C(=O)N[C@@H](Cc2ccccc2)C(=O)N(C)[C@@H](CC(C)C)C(=O)N[C@@H]([C@@H](C)O)C(=O)N1)C(=O)N1CCCCC1` [DP-929] ([dV]A[NMeF][NMeA]F[NMeL]TD[NMeF]P[NMeL]I-Piperidide; lactam N-8), the Papp at 18 hours, 50 µM in data set [1] was 12 ×10⁻⁶ cm/s. In data set [2], the microsomal CLint at 1 uM amounted to 49 µL/min/mg.
For `CC[C@H](C)[C@H](NC(=O)[C@@H](NC(=O)[C@H](Cc1ccccc1)NC(=O)[C@H](CC(C)C)N(C)C(=O)[C@@H]1CC(=O)N(C)CCC(=O)N(C)[C@@H](C)C(=O)N[C@@H](CC(C)C)C(=O)N[C@@H]([C@@H](C)O)C(=O)N(C)[C@@H](Cc2ccccc2)C(=O)N(C)[C@@H](CC(C)C)C(=O)N(C)[C@@H](Cc2ccccc2)C(=O)N1)C(C)C)C(=O)N1CCCCC1` [DP-930] ([NMeβAla][NMeA]LT[NMeF][NMeL][NMeF]D[NMeL]FVI-Piperidide; lactam N-8) the same measures were 0.46 ×10⁻⁶ cm/s and 168 µL/min/mg.
For `CC[C@H](C)[C@H](NC(=O)[C@H](C)N(C)C(=O)[C@H](CC(C)C)N(C)C(=O)[C@H](CC(C)C)NC(=O)[C@@H]1CC(=O)N[C@@H](Cc2ccccc2)C(=O)N[C@@H]([C@@H](C)CC)C(=O)N(C)[C@@H](CC(C)C)C(=O)N(C)[C@@H](CC(C)C)C(=O)N[C@@H](Cc2ccccc2)C(=O)N[C@@H]([C@@H](C)O)C(=O)N(C)[C@@H](Cc2cccc(Cl)c2)C(=O)N1)C(=O)N1CCCCC1` [DP-931] (FI[NMeL][NMeL]FT[NMePhe(3-Cl)]DL[NMeL][NMeA]I-Piperidide; lactam N-8) the same measures were 0.1 ×10⁻⁶ cm/s and 12 µL/min/mg.
In the same order, the values of `CC[C@H](C)[C@@H]1NC(=O)[C@H](Cc2ccccc2)N(C)C(=O)[C@H](CC(C)C)N(C)C(=O)[C@H](Cc2ccccc2)NC(=O)[C@H](C)N(C)C(=O)[C@H]([C@@H](C)O)NC(=O)[C@H](C(C)C)NC(=O)[C@@H](C(C)C)NC(=O)C[C@@H](C(=O)N(C)[C@@H](Cc2ccccc2)C(=O)N[C@H](C(=O)N(C)[C@@H](C)C(=O)N(C)[C@@H](CC(C)C)C(=O)N[C@H](C(=O)N2CCCCC2)[C@@H](C)CC)C(C)C)NC1=O` [DP-935] ([dV]VT[NMeA]F[NMeL][NMeF]ID[NMeF]V[NMeA][NMeL]I-Piperidide; lactam N-9) are 0.1 ×10⁻⁶ cm/s and 29 µL/min/mg.
As for `CC[C@H](C)[C@H](NC(=O)[C@H](CC(C)C)N(C)C(=O)[C@@H]1CCCN1C(=O)[C@@H](NC(=O)[C@H](C)N(C)C(=O)[C@@H]1CC(=O)N[C@@H](C)C(=O)N(C)[C@@H](CC(C)C)C(=O)N(C)[C@@H](Cc2cccc(Cl)c2)C(=O)N[C@@H](C(C)C)C(=O)N(C)[C@@H](CC(C)C)C(=O)N(C)[C@@H](CC(C)C)C(=O)N[C@@H]([C@@H](C)O)C(=O)N[C@@H](Cc2ccccc2)C(=O)N1)C(C)C)C(=O)N1CCCCC1` [DP-936] (A[NMeL][NMePhe(3-Cl)]V[NMeL][NMeL]TFD[NMeA]VP[NMeL]I-Piperidide; lactam N-9), in data set [1], the Papp at 18 hours, 50 µM worked out at 0.11 ×10⁻⁶ cm/s. Moreover, the microsomal CLint at 1 uM in data set [2] is 29 µL/min/mg.
For `CC[C@H](C)[C@H](NC(=O)[C@H](CC(C)C)NC(=O)[C@H](CC(C)C)N(C)C(=O)[C@@H](NC(=O)[C@@H]1CCCN1C(=O)[C@@H]1CC(=O)N(C)CCC(=O)N[C@@H](CC(C)C)C(=O)N(C)[C@@H](CC(C)C)C(=O)N[C@@H]([C@@H](C)O)C(=O)N(C)[C@@H](C)C(=O)N[C@@H]([C@@H](C)CC)C(=O)N(C)[C@@H](CC(C)C)C(=O)N(C)[C@@H](CC(C)C)C(=O)N1)[C@@H](C)CC)C(=O)N1CCCCC1` [DP-937] ([NMeβAla]L[NMeL]T[NMeA]I[NMeL][NMeL]DPI[NMeL]LI-Piperidide; lactam N-9) the same measures were 0.47 ×10⁻⁶ cm/s and 164 µL/min/mg.
In the same order, the values of `CC[C@H](C)[C@H](NC(=O)[C@H](Cc1ccccc1)N(C)C(=O)[C@@H](NC(=O)[C@H](C)NC(=O)[C@H](CC(C)C)N(C)C(=O)[C@@H]1CC(=O)N(C)[C@@H](C)C(=O)N(C)[C@@H](CC(C)C)C(=O)N(C)[C@@H](Cc2ccccc2)C(=O)N[C@@H]([C@@H](C)O)C(=O)N(C)[C@@H](CC(C)C)C(=O)N(C)[C@@H](CC(C)C)C(=O)N[C@@H]([C@@H](C)CC)C(=O)N(C)[C@@H](CC(C)C)C(=O)N1)C(C)C)C(=O)N1CCCCC1` [DP-938] ([NMeA][NMeL][NMeF]T[NMeL][NMeL]I[NMeL]D[NMeL]AV[NMeF]I-Piperidide; lactam N-9) are 0.1 ×10⁻⁶ cm/s and 8 µL/min/mg.
With `CC[C@H](C)[C@H](NC(=O)[C@H](CC(C)C)N(C)C(=O)CN(C)C(=O)[C@@H](NC(=O)[C@@H]1CC(=O)N[C@H](C(C)C)C(=O)N[C@@H](C)C(=O)N[C@@H]([C@@H](C)O)C(=O)N(C)[C@@H](C)C(=O)N[C@@H](Cc2ccccc2)C(=O)N(C)[C@@H](CC(C)C)C(=O)N(C)[C@@H](Cc2ccccc2)C(=O)N(C)[C@@H](CC(C)C)C(=O)N1)C(C)C)C(=O)N1CCCCC1` [DP-939] ([dV]AT[NMeA]F[NMeL][NMeF][NMeL]DV[Sar][NMeL]I-Piperidide; lactam N-9), the Papp at 18 hours, 50 µM in data set [1] was found to be 3.6 ×10⁻⁶ cm/s. Moreover, the microsomal CLint at 1 uM in data set [2] worked out at 8 µL/min/mg.
As for `CC[C@H](C)[C@H](NC(=O)[C@@H](NC(=O)[C@H](CC(C)C)N(C)C(=O)[C@@H](NC(=O)[C@@H]1CC(=O)N(C)[C@@H](C)C(=O)N[C@@H](CC(C)C)C(=O)N(C)[C@@H](Cc2ccccc2)C(=O)N[C@@H](CC(C)C)C(=O)N(C)CC(=O)N(C)[C@@H](CC(C)C)C(=O)N[C@@H]([C@@H](C)CC)C(=O)N(C)[C@@H](CC(C)C)C(=O)N1)[C@@H](C)O)C(C)C)C(=O)N1CCCCC1` [DP-940] ([NMeA]L[NMeF]L[Sar][NMeL]I[NMeL]DT[NMeL]VI-Piperidide; lactam N-9), in data set [1], the Papp at 18 hours, 50 µM worked out at 0.14 ×10⁻⁶ cm/s. Further, the microsomal CLint at 1 uM in data set [2] came out at 37 µL/min/mg.
In the same order, the values of `CC[C@H](C)[C@H](NC(=O)[C@H](CC(C)C)N(C)C(=O)[C@@H](NC(=O)[C@H](Cc1ccccc1)N(C)C(=O)[C@@H]1CC(=O)N(C)CCC(=O)N(C)[C@@H](Cc2cccc(Cl)c2)C(=O)N[C@@H](CC(C)C)C(=O)N[C@@H]([C@@H](C)O)C(=O)N[C@@H](CC(C)C)C(=O)N[C@@H]([C@@H](C)CC)C(=O)N(C)[C@@H](CC(C)C)C(=O)N(C)[C@@H](CC(C)C)C(=O)N1)[C@@H](C)CC)C(=O)N1CCCCC1` [DP-941] ([NMeβAla][NMePhe(3-Cl)]LTLI[NMeL][NMeL]D[NMeF]I[NMeL]I-Piperidide; lactam N-9) are 0.1 ×10⁻⁶ cm/s and 49 µL/min/mg.
In the same order, the values of `CC[C@H](C)[C@H](NC(=O)[C@H](C)N(C)C(=O)[C@@H]1CCCN1C(=O)[C@@H](NC(=O)[C@@H]1CC(=O)N(C)[C@H](C)C(=O)N(C)[C@@H](CC(C)C)C(=O)N(C)[C@@H](Cc2ccccc2)C(=O)N[C@@H](CC(C)C)C(=O)N(C)[C@@H](Cc2cccc(Cl)c2)C(=O)N[C@@H]([C@@H](C)O)C(=O)N(C)[C@@H](Cc2ccccc2)C(=O)N[C@@H](CC(C)C)C(=O)N1)[C@@H](C)CC)C(=O)N1CCCCC1` [DP-942] ([dNMeA][NMeL][NMeF]L[NMePhe(3-Cl)]T[NMeF]LDIP[NMeA]I-Piperidide; lactam N-9) are 0.1 ×10⁻⁶ cm/s and 23 µL/min/mg.
